pIC50: −log10 of the molar value.
Experiments:
[1] = target: Epidermal growth factor receptor (Homo sapiens, UniProt P00533); assay: Inhibition of Epidermal growth factor receptor
[2] = target: Tyrosine-protein kinase Lck (Homo sapiens, UniProt P06239); assay: Inhibition of p56 lck tyrosine kinase
Chain of Tyrosine-protein kinase Lck (P06239 whole entry): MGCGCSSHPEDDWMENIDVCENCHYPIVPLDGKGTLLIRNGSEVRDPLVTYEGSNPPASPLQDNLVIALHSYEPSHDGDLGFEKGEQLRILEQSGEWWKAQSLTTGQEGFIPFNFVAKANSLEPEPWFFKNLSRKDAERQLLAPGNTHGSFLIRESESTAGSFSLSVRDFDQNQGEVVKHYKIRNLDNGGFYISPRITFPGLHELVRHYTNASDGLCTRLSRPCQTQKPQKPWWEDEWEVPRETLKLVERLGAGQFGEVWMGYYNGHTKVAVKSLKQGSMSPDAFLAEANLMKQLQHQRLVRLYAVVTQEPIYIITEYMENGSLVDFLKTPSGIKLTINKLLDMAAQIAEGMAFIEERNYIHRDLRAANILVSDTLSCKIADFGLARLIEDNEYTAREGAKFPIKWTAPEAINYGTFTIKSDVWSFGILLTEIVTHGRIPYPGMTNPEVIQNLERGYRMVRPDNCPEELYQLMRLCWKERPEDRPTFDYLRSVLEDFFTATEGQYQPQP

Chain of Epidermal growth factor receptor (P00533 whole entry): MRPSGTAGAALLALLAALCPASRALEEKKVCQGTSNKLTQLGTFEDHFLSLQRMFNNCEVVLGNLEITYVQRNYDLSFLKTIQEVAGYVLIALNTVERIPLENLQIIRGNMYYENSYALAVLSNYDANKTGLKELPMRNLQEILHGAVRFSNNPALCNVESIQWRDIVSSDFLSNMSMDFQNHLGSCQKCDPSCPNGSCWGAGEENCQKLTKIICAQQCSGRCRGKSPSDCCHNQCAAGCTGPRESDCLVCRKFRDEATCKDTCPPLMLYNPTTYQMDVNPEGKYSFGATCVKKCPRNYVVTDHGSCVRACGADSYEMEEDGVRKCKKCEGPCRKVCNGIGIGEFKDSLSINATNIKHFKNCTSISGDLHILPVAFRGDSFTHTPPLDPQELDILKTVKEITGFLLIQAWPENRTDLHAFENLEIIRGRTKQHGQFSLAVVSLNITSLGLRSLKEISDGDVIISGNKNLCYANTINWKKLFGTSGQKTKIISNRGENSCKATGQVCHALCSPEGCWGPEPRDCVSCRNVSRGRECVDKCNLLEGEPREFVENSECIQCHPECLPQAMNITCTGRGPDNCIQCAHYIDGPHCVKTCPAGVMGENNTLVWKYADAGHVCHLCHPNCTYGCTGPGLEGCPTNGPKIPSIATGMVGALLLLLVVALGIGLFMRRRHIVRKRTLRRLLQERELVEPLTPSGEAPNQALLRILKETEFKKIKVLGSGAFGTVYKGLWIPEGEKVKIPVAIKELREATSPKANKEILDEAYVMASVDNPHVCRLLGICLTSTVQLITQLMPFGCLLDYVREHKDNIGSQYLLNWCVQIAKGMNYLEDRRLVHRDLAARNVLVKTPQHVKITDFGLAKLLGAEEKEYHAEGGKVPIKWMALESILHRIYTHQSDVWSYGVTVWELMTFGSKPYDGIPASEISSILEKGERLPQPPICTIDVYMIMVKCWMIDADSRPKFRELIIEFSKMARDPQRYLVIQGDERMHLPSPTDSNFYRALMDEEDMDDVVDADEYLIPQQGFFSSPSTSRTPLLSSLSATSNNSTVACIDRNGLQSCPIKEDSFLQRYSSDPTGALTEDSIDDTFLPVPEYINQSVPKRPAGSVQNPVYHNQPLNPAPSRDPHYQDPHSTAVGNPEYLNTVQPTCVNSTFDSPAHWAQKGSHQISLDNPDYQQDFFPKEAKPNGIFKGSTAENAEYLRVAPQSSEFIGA

Structure (SMILES)	pIC50 [1]	pIC50 [2]
O=CN/C=C/c1ccc(O)c(O)c1	5.15	–
N#C/C(=C\c1cc(O)ccc1O)C(N)=O	5.00	4.00
O=CN/C=C/c1cc(O)ccc1O [ERBSTATIN]	5.52	–
N#C/C(=C\c1ccc(O)c(O)c1)C(N)=O	5.40	5.15

From ChEMBL document CHEMBL1153680, “Structural influences of styryl-based inhibitors on epidermal growth factor receptor and p56lck tyrosine-specific protein kinases” (Bioorg Med Chem Lett, 1991)
